Measurements from the Kinase Knowledgebase extract (Sharma et al. 2016).
pIC50: −log10 of the molar value.

molecular target: MAPK14 (human) (UniProt Q16539); assay: Inhibition of MAPK14 Kinase Activity
Sequence (Q16539 whole entry, looked up): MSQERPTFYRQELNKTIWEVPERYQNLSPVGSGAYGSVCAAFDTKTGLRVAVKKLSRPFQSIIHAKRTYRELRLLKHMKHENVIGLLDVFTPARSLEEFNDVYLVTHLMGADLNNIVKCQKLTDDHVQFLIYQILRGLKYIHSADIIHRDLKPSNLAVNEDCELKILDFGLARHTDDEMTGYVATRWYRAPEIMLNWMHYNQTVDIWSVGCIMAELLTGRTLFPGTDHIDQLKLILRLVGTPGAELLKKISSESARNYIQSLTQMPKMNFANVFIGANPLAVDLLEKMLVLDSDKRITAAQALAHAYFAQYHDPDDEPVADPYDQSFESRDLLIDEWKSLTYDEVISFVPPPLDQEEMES

pIC50, ≥ 5.00:
CC(=O)Nc1cc(Cl)c(N2CC(Sc3ccc(F)cc3F)CCC2=O)c(Cl)n1 (centres undefined)
O=C1CCC(Oc2ccc(F)cc2F)CN1c1c(Cl)cc(O)cc1Cl (centres undefined)
Cc1cc(NC(=O)OC(C)(C)C)cc(C)c1N1CC(Cc2ccc(F)cc2F)CCC1=O (centres undefined)
O=C1CCC(Oc2ccccc2)CN1C1C(Cl)CCCC1Cl (centres undefined)
O=C1CCC(Oc2ccc(F)cc2F)CN1c1c(Cl)ncc(O)c1Cl (centres undefined)
O=C(Cc1ccccc1)Nc1ccc(Cl)c(N2CC(Cc3ccc(F)cc3F)SCC2=O)c1Cl (centres undefined)
COc1ccccc1CC1CSC(=O)N(c2c(Cl)cccc2Cl)C1 (centres undefined)
O=C(O)CNc1ccc(Cl)c(N2CC(Cc3ccc(F)cc3F)CCC2=O)c1 (centres undefined)
O=C1CCC(Oc2ccc(Cl)cc2)CN1C1C(Cl)CCCC1Cl (centres undefined)
Cc1ccc(CC2COC(=O)N(c3c(Cl)cccc3Cl)C2)cc1 (centres undefined)
Cc1cc(C)cc(CC2CNC(=O)N(c3c(Cl)cccc3Cl)C2)c1 (centres undefined)
CN(C)CCCc1cc(Cl)c(N2CC(Cc3ccc(F)cc3F)CCC2=O)c(Cl)c1 (centres undefined)
O=C1NCC(Cc2cc(Cl)cc(Cl)c2)CN1c1c(Cl)cccc1Cl (centres undefined)
Cc1ccc(CC2CN(c3c(Cl)cccc3Cl)C(=O)CO2)c(C)c1 (centres undefined)
O=C1CCC(Cc2ccccc2Cl)CN1c1c(Cl)csc1Cl (centres undefined)
CCOC(=O)CNc1cc(Cl)c(N2CC(Cc3ccc(F)cc3F)CCC2=O)c(Cl)c1 (centres undefined)
O=C1NCC(Cc2ccc(F)cc2F)CN1c1c(Cl)cc(O)cc1Cl (centres undefined)
Cc1cc(C)cc(CC2CCC(=O)N(c3c(Cl)cccc3Cl)C2)c1 (centres undefined)
CNc1ccc(Cl)c(N2CC(Cc3ccc(F)cc3F)SCC2=O)c1Cl (centres undefined)
COc1ccc(CC2CCC(=O)N(c3c(Cl)ccnc3Cl)C2)cc1 (centres undefined)
O=C1CCC(Oc2cccc3ccccc23)CN1c1c(Cl)cccc1Cl (centres undefined)
O=C1CCC(Sc2ccccc2Cl)CN1C1C(Cl)CCCC1Cl (centres undefined)
CC(C)(C)OC(=O)Nc1ccc(Cl)c(N2CC(Cc3ccc(F)cc3F)CCC2=O)c1 (centres undefined)
Cc1cccc(C)c1N1C[C@H](Cc2ccc(F)cc2F)C[C@H](C)C1=O
O=C1CCC(Oc2ccc(Cl)cc2Cl)CN1c1c(Cl)ccnc1Cl (centres undefined)
CNc1sc(Cl)c(N2CC(Sc3ccc(F)cc3F)CCC2=O)c1Cl (centres undefined)
O=C1CCC(Sc2ccccc2Cl)CN1c1c(Cl)csc1Cl (centres undefined)
Nc1cc(Cl)c(N2CC(Cc3ccc(F)cc3F)CCC2=O)c(Cl)c1 (centres undefined)
Cc1cc(CCCCC=O)cc(C)c1N1CC(Cc2ccc(F)cc2F)CCC1=O (centres undefined)
CNC1CCC(Cl)C(N2CC(Oc3ccc(F)cc3F)CCC2=O)C1Cl (centres undefined)
O=C1CCC(Cc2cc(Cl)cc(Cl)c2)CN1c1c(Cl)csc1Cl (centres undefined)
COc1ccc(CC2CNC(=O)N(c3c(Cl)cccc3Cl)C2)cc1 (centres undefined)
Cc1cccc(C)c1N1CC(/C=C/Cc2ccccc2)(CO)CCC1=O (centres undefined)
O=C(Cc1ccccc1)Nc1ccc(Cl)c(N2CC(Oc3ccc(F)cc3F)CCC2=O)c1Cl (centres undefined)
Cc1ccc(CC2CCC(=O)N(c3c(Cl)cccc3Cl)C2)c(C)c1 (centres undefined)
O=C1CCC(Oc2ccccc2Cl)CN1c1c(Cl)csc1Cl (centres undefined)
CN(C)CCN(C(=O)OC(C)(C)C)c1cc(Cl)c(N2CC(Cc3ccc(F)cc3F)CCC2=O)c(Cl)c1 (centres undefined)
O=C1CCC(Cc2ccc(F)cc2F)CN1c1c(Cl)cc(NCCN2CCCC2)cc1Cl (centres undefined)
O=C1CCC(Cc2ccc(F)cc2F)CN1C1C(Cl)CCC(O)C1Cl (centres undefined)
Cc1cc(C#CCCN2CCOCC2)cc(C)c1N1CC(Cc2ccc(F)cc2F)CCC1=O (centres undefined)
COC(=O)c1cc(C)c(N2CC(Cc3ccc(F)cc3F)CCC2=O)c(Cl)c1 (centres undefined)
CC(=O)NCc1ccccc1CC1CCC(=O)N(c2c(Cl)cccc2Cl)C1 (centres undefined)
O=C1CCC(Cc2ccc(F)cc2F)CN1c1c(Cl)cc(NCc2ccccn2)cc1Cl (centres undefined)
O=C1CCC(Oc2ccc(Cl)cc2)CN1c1c(Cl)csc1Cl (centres undefined)
O=C(O)c1cc(Cl)c(N2CC(Cc3ccc(F)cc3F)CCC2=O)c(Cl)c1 (centres undefined)
O=C1CCC(Sc2ccc(Cl)cc2)CN1c1c(Cl)cncc1Cl (centres undefined)
Cc1ccc(CC2CN(C)C(=O)N(c3c(Cl)cccc3Cl)C2)c(C)c1 (centres undefined)
O=C1CCC(Oc2cc(F)cc(F)c2)CN1c1c(Cl)cncc1Cl (centres undefined)
Cn1nc(C(C)(C)C)cc1NC(=O)CCc1ccccc1CC1CCC(=O)N(c2c(Cl)cccc2Cl)C1 (centres undefined)
